One assay deals with T1, Human Liver ALP (Homo sapiens, UniProt P05186).
T1 sequence (P05186 18-502 limits assumed): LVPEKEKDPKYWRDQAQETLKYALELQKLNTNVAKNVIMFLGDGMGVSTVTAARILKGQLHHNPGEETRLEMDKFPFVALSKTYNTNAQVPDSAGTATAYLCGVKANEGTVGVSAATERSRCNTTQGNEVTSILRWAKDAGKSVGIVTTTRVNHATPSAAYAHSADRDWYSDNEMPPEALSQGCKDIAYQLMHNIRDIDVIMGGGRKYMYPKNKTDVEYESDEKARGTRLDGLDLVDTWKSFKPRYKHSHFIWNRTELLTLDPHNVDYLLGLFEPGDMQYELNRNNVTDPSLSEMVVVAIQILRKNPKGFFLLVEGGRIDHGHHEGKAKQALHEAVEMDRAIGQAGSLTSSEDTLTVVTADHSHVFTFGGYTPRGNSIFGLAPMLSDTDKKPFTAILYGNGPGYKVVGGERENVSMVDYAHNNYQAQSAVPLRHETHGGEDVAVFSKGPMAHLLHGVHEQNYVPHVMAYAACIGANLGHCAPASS
The assay is described as follows: Ki of inhibitors for human liver ALP (Table 1). Type of assay: biochemical. The conditions noted are these: Enzyme: Human Liver. From the text: Another approach to reduce the effects of the human ALPs is to use inhibitors of ALPs in the substrate solution.

In assay [1] the target is T2, ALPs in Sarcoma 180/TG ascites cells (Mus musculus, UniProt P09242).
T2 construct: host or cells: Sarcoma 180/TG ascites cells
T2 sequence (P09242 18-502 limits assumed): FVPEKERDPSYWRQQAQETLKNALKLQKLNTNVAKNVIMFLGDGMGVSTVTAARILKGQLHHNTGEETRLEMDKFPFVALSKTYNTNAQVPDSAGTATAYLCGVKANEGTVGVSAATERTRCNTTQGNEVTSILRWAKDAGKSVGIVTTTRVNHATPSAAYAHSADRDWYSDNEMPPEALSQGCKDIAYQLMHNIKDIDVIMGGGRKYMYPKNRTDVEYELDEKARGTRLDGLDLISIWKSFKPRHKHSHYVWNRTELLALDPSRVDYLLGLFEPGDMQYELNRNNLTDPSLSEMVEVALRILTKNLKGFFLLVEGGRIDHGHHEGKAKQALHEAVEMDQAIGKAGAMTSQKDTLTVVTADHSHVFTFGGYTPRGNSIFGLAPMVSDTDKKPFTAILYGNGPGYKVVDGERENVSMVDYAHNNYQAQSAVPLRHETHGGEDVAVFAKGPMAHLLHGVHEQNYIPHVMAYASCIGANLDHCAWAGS
The conditions noted are these: J. Med. Chem. 1977, 20: 563-566; cited from earlier work.

For assay [2], the system named is endogenous ALP (high molecular weight and/or elevated normal ALP) in patient serum samples. Put plainly: Background signal from endogenous ALP of patient serum samples on Stratus Fluorometric Analyzer, using each substrate/wash composition. Further details: species or system human. As to conditions: patient serum Samples 1-3 (FIGS. 1-3); ALP conjugate, 4-MUP substrate; rate in mv/min. The method, then:
Three carcinoembryonic antigen (CEA) positive patient serum samples (Samples 1, 2, and 3) were identified as having high molecular weight ALP and/or elevated levels of normal ALP. These samples were tested using the compositions of this invention. The patient samples were evaluated on an automated immunoassay analyzer (the Stratus^R Fluorometric Analyzer from Baxter Diagnostics Inc.) which utilizes an ALP conjugate and a 4-MUP substrate. This automated analyzer combines the wash step with the substrate addition step. See, U.S. Pat. No. 4,517,288. The commercially available substrate composition (XWS) has the dual function of washing the solid phase and initiating the ALP reaction. […]
(§1) The samples were evaluated on the analyzer using each composition as the substrate/wash. […]
Five patient samples, Samples 1, 2, and 3 (as described in Example 1), Sample 4 (which originated from a patient who tested positive for colon cancer) and Sample 5 (which originated from a patient who tested positive for breast cancer) were identified as having high molecular weight ALP and/or elevated levels of normal ALP. These samples were evaluated using the compositions of this invention. The patient samples were evaluated on the automated immunoassay analyzer described in Example 1. […]
as §1

As a reminder, the Ki is a measure of affinity in units of concentration, obtained from inhibition or displacement. For `C1=CN2CC(c3ccc4ccccc4c3)N=C2S1` (stereo not shown) [Naphthyl, 5,6-Dihydro-6-(2-naphthyl)imidazo-[2,1-b]thiazole], the Ki at Human Liver ALP is 30.3 µM; in assay [1], about 1 µM. In assay [2], the “background signal generated from endogenous ALP / false positive reading” value is on record as “substantially lowers the background signal”.

In the case of `Brc1ccc([C@H]2CN3CCSC3=N2)cc1` [Bromolevamisole], on Human Liver ALP, the affinity corresponds to a Ki of 98.5 µM.

The record behind these values is patent US5948630A, “Method and composition for reducing the effects of endogenous alkaline phosphatase” (Dade Behring Inc., priority 1996, dated 1999).
